From article PMC7926928, “Preliminary Investigation of the Antioxidant, Anti-Diabetic, and Anti-Inflammatory Activity of Enteromorpha intestinalis Extracts” (Molecules, 2021)

Test system: T1, trypsin
T1 construct: gene PRSS1
Test: casein digestion, absorbance at […] nm
Assay type: biochemical
Conditions: casein 0.8%, 20 mM Tris-HCl pH 7.4, 37 °C, 20 min

Structure (SMILES): CC(=O)Oc1ccccc1C(=O)O [acetylsalicylic acid]
- Acetylsalicylic Acid: 5.11 ± 0.97 µg/mL
